Values after ≈ are worked out from the molar mass of the structure shown.
test: Equilibrium solubility of the compound in DMSO preincubated for 4 hrs; assay type: physicochemical; conditions: not given

SMILES	solubility at 4 h [µM]
O=C(Cc1cc2cccnn2c1-c1cccc(C(F)(F)F)c1)N1CCC[C@@H]1CO	220 (≈ 88.7 µg/mL)
CCN(CCO)C(=O)c1cc2cccnn2c1-c1cccc(C(=O)Nc2ccccc2)c1	25 (≈ 10.7 µg/mL)
CCN(CCO)C(=O)c1cc2cc(OC)cnn2c1-c1cccc(C(F)(F)F)c1	25 (≈ 10.2 µg/mL)
CCN(CCO)C(=O)c1cc2cccnn2c1-c1cccc(OC)c1	340 (≈ 115 µg/mL)
N#Cc1cccc(-c2c(C(=O)N3CCCCC3CO)cc3ccccn23)c1 (stereo unspecified)	250 (≈ 89.9 µg/mL)
CCCN(CCO)C(=O)c1cc2ccccn2c1-c1ccccc1	280 (≈ 90.3 µg/mL)
CCN(CCO)C(=O)c1cc2cccnc2n1-c1cccc(C(F)(F)F)c1	> 300
CCN(CCO)C(=O)c1cc2cccnn2c1Cc1cccc(C(F)(F)F)c1	170 (≈ 66.5 µg/mL)
CCN(CCO)C(=O)c1nc2ccccn2c1-c1cccc(C(F)(F)F)c1	270 (≈ 102 µg/mL)
CCN(CCO)C(=O)c1cc2ccc(C)nn2c1-c1cccc(C(F)(F)F)c1	28 (≈ 11 µg/mL)
CCN(CCO)C(=O)c1cc2ccncn2c1-c1cccc(C(F)(F)F)c1	240 (≈ 90.6 µg/mL)
CCN(CCO)C(=O)c1cc2cc(C)cnn2c1-c1cccc(C(F)(F)F)c1	190 (≈ 74.4 µg/mL)
CCN(CCO)C(=O)c1cc2cccnn2c1-c1cccc(C)c1	330 (≈ 107 µg/mL)
CCN(CCO)C(=O)c1oc2cccnc2c1-c1cccc(C(F)(F)F)c1	> 400
CCN(CCO)C(=O)c1nc2cccnc2n1-c1cccc(C(F)(F)F)c1	24 (≈ 9.08 µg/mL)
CCN(CCO)C(=O)c1cc2cccnn2c1-c1cccc(C(F)(F)F)c1	200 (≈ 75.5 µg/mL)
CCN(Cc1ccn[nH]1)C(=O)c1cc2cccnn2c1-c1cccc(C(F)(F)F)c1	150 (≈ 62 µg/mL)
CCN(CCO)C(=O)c1cc2cccnn2c1-c1ccc(C(F)(F)F)cc1	22 (≈ 8.3 µg/mL)
CCN(CCO)C(=O)c1cc2c(C)ccnn2c1-c1cccc(C(F)(F)F)c1	32 (≈ 12.5 µg/mL)
CCN(CCO)C(=O)c1cc2ccccn2c1-c1cccc(OC)c1	150 (≈ 50.8 µg/mL)
CCN(CCO)C(=O)c1cc2ccccn2c1-c1cccc(C(F)(F)F)n1	360 (≈ 136 µg/mL)
CCN(CCO)C(=O)c1cc2ccccn2c1-c1cccc(C)c1	260 (≈ 83.8 µg/mL)
CCN(CCO)C(=O)c1cc2ccccn2c1-c1cccc(OC)n1	190 (≈ 64.5 µg/mL)
O=C(c1cc2cccnn2c1-c1cccc(C(F)(F)F)c1)N1CCC[C@H]1CO	360 (≈ 140 µg/mL)
COc1ccc(-c2c(C(=O)N3CCC[C@H]3CO)cc3cccnn23)cc1	> 400
COc1cccc(-c2c(C(=O)N3CCCCC3CO)cc3ccccn23)c1 (stereo unspecified)	260 (≈ 94.8 µg/mL)

test: Apparent permeability across apical to basolateral side of human Caco2 cells; assay type: ADME, cell-based; conditions: Caco-2

SMILES	Papp A→B [×10⁻⁶ cm/s]
CCCN(CCO)C(=O)c1cc2ccccn2c1-c1ccccc1	60
CCN(CCO)C(=O)c1cc2cccnn2c1-c1cccc(C(F)(F)F)c1	42
CCN(CCO)C(=O)c1cc2ccccn2c1-c1cccc(OC)c1	54
CCN(CCO)C(=O)c1cc2ccccn2c1-c1cccc(OC)n1	56
COc1cccc(-c2c(C(=O)N3CCCCC3CO)cc3ccccn23)c1 (stereo unspecified)	58

Reference: ChEMBL document CHEMBL2163201, “Discovery of novel pyrrolopyridazine scaffolds as transient receptor potential vanilloid (TRPV1) antagonists” (Bioorg Med Chem Lett, 2012)
